Measurements published in patent publication US20230181564A1, “Potent Tetrahydroquinolone Eliminates Apicomplexan Parasites” (The University of Chicago, priority 2020, published 2023).
Converted amounts (≈) assume the structure as drawn. Each block holds one compound with its values, some of them ahead of it.

Assays:
[1] = Kinetic/aqueous solubility in PBS pH 7.4; type: physicochemical; details: for solubility: amorphous compounds; for PBS Sol pH7.4: solubility in Phosphate Buffered Saline pH 7.4, first value of cell
Description: PBS Sol/Toxicity pH7.4 refers to solubility of the compound in Phosphate Buffered Saline (PBS) at pH7.4. […] Parasites were RH-YFP expressing tachyzoites (Tachy) and EGS (Brady) strains. Studies of effects of inhibitors on HFF or on T.gondii tachyzoites were performed with triplicate wells in at least two biological replicate experiments. Studies of effects on bradyzoites were performed at least twice in at least two biological replicate experiments. Compounds with much less inhibition of mammalian than T. gondii cytochrome bc in the saffarine enzyme assay (indicated by **) provide potential to further develop compounds, if unanticipated toxicity occurs from JAG21.
(§1) Structure Activity Relationship (SAR) and comparison of effect on T.gondii and HFF enzyme activity. […] The MDCK-MDR1 Permeability Assay was also performed. […] These were measured by Chem Partners.

[2] = test system: Human Foreskin Fibroblast (HFF); assay: Cytotoxicity assay with WST-1 on HFF; type: cell-based; details: for Toxicity* (highest concentration tested that does not show toxicity to HFF): WST assay, second value of cell
Description: (§2) PBS Sol/Toxicity pH7.4 refers to solubility of the compound in Phosphate Buffered Saline (PBS) at pH7.4. […] Tachy/Brady IC50 was determined in studies in which cultures of parasites in HFF were treated with varying concentrations of the compound and there was 50% inhibition of the replication (number) of parasites. Parasites were RH-YFP expressing tachyzoites (Tachy) and EGS (Brady) strains. Studies of effects of inhibitors on HFF or on T.gondii tachyzoites were performed with triplicate wells in at least two biological replicate experiments. Studies of effects on bradyzoites were performed at least twice in at least two biological replicate experiments. Compounds with much less inhibition of mammalian than T. gondii cytochrome bc in the saffarine enzyme assay (indicated by **) provide potential to further develop compounds, if unanticipated toxicity occurs from JAG21.
Cytotoxicity Assays in parallel with RH Strain T.gondii in vitro studies. Toxicity assays used WST-1 cell proliferation reagent (Roche) as in Fomovska et al. (2012). HFF were grown on a flat, clear-bottomed, black 96-well plate. Confluent HFF were treated with inhibitory compounds at concentrations of 10 μM and 50 μM. Compounds were diluted in IMDM-C, and 20 μL were added to each designated well, with triplicates for each condition. A gradient with 2 fold-decreasing concentrations of DMSO from 10% to 0% in colorless, translucent IMDM-C was used as a control. The plate was incubated for 72 hours at 37° C. 10 μL WST-1 reagent (Roche) were added to each well. Cells were incubated for 30-60 minutes. Absorbance was read using a fluorimeter at 420 nm. A higher degree of color change (and absorbance) indicated mitochondrial activity and cell viability.
Because T. gondii grows inside cells, if a compound were toxic to host HFF then it would make the compound appear to be spuriously effective (Fomovska et al. 2012; Fomovska et al. 2012a), when in actuality only toxicity for the host cell would be measured. Cytotoxicity to HFF was therefore assessed for all compounds at 10 μM. Results of this experiment are in Table 1, toxicity column. A two-way ANOVA and subsequent pairwise comparison found none of the differences in absorbance, compared to the media-DMSO vehicle controls, to be statistically significant (p>0.05). Most of these compounds are not toxic at 10 μM (the limit of solubility) and that cytotoxicity to cells can be attributed to DMSO in the solution, not the compound.

[3] = test system: T. gondii mitochondrial membrane potential (cytochrome bc); assay: Mitochondrial membrane potential by the safranine method (T. gondii, compared with HFF); type: cell-based, Toxoplasma gondii; details: for Effect on T. gondii mitochondrial membrane potential: doses as high as 4 μM
Description: T.gondii and HFF Mitochondrial Membrane Potential Measurements—the mitochondrial membrane potential was measured by the safranine method according to Vercesi et al, 1998). Freshly egressed T. gondii tachyzoites were filtered and washed twice with intracellular buffer (125 mM sucrose, 65 mM KCl, 10 mM HEPES-KOH buffer, pH 7.2, 1 mM MgCl2 and 2.5 mM potassium phosphate). After washing, the parasites were resuspended in the same buffer at 10^9/ml. An aliquot of 50 μL of this suspension was added to a cuvette containing Safranin 0, 2.5 μM and Succinate 1 mM in final volume of 2 mL of the intracellular buffer. The fluorescence was measured with a Hitachi 7000 spectrofluorometer with setting Ex. 495/Em. 586. Once the baseline fluorescence is testable, 30 μM digitonin was added to permeabilize the parasites. 85 seconds after permeabilization, the THQ derivatives, dissolved in DMSO, were added. 5 μM of FCCP (Carbonyl cyanide-4-(trifluoromethoxy) phenylhydrazone) was used as an uncoupler reference for calculations and its effect was considered 100%. Similar conditions for measuring the mitochondrial potential of mammalian cells were used with the following changes: the mammalian cells were re-suspended at 10^8/ml. 50 μl of mammalian cells was also used for each run in a cuvette with […]. The substrate used for mammalian cells was 5 mM glutamate and 5 mM malate. A higher concentration of digitonin (50 μM) was used to permeabilize the mammalian cells. The compounds were added at about 400 seconds after permeabilization. Each experiment was repeated at least three times in duplicates. Statistical analysis, unpaired student t test, was performed using GraphPad Prism 8.0 (GraphPad Software, Inc., San Diego, Calif.).
Mitochondrial membrane potential measurements were performed with permeabilized T.gondii tachyzoites in suspension using safranin O, which loads into polarized membranes. T. gondii tachyzoites were permeabilized with digitonin to allow the mitochondrial substrate succinate to cross the membrane and energize the mitochondrion. The fluorescence of safranin O, which loads into energized mitochondria was used to measure the membrane potential. The energized state of the mitochondrion is observed by a decrease in fluorescence (FIGS. 3A,C,E). Trifluoromethoxy carbonylcyanide phenylhydrazone (FCCP) was used to depolarize the membrane, which causes the fluorescence to go up as shown in FIG. 3A. JAG21 depolarized the membrane potential even at concentrations as low as 2 nM (FIG. 3C,D). JAG21 and Atovaquone had similar effects on the mitochondrial membrane potential (FIG. 3D). […] The effect of these THQ compounds against the T. gondii mitochondrial membrane potential was greater than the effect on the human foreskin fibroblast membrane potential (FIG. 3E,F). […]

[4] = test system: T. gondii RH-YFP tachyzoites; assay: In vitro challenge assay, RH strain YFP tachyzoites in HFF; type: cell-based, Toxoplasma gondii; details: requires hepatic metabolism
Description: as §2
RH strain YFP Tachyzoites. Protocol was adapted from Fomovska et al. (2012; 2012a) for HFF. […] RH-YFP, lysed from host cells by passing twice through a 27-gauge needle, were counted, then diluted to 32,000/mL in IMDM-C. […] Plates were read using a fluorimeter (Synergy H4 Hybrid Reader, BioTek) to ascertain amount of relative fluorescence units (RFU) YFP, to measure parasite burden after treatment. Data were collected using Gen5 software with IC50 calculated by graphical analysis in Excel. […]

[5] = Metabolic stability in mouse liver microsomes; type: in vitro ADME; details: predicted half-life in mouse liver microsomes; no unit in table (101 minutes for JAG021)
[6] = test system: P-glycoprotein (MDR1, ABCB1); assay: in vitro; type: in vitro ADME, canine; details: dog, MDCK-MDR1
Description: as §1

[7] = target: T1, P. falciparum bc1 complex cytochrome c reductase (Pfbc1) (Plasmodium falciparum, UniProt Q02768); assay: Pfbc1 native assay (cytochrome c reduction by parasite extract); type: biochemical; details: atovaquone 1 μM positive control, mean±S.D., N=4
T1 construct: Parasite extract was then prepared by disruption with a sonicating probe; endogenous in cells; host or cells: P. falciparum 3D7 blood-stage parasites freed by saponin, sonicated extract
T1 sequence (Q02768 1-376): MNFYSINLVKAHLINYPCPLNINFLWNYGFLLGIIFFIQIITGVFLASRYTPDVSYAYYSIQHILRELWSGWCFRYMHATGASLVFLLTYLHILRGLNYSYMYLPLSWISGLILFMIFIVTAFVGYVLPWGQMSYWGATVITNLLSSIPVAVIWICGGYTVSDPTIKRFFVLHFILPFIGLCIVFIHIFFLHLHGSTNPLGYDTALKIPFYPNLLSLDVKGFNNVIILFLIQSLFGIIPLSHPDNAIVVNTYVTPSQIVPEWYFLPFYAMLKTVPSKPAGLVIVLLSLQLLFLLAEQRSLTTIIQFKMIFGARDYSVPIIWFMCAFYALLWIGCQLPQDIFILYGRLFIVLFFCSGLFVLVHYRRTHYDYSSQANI
Description: Enzyme assays. P. falciparum 3D7 strain were obtained from the Liverpool School of Tropical Medicine. Protease cocktail inhibitor was obtained from Roche. Bradford protein assay dye reagent was obtained from Bio-Rad. All other reagents were obtained from Sigma-Aldrich. Decylubiquinol was produced as per Fisher et al. (2009). In brief, 25 mg of decylubiquinone were dissolved in 400 μl of nitrogen-saturated hexane. An equal volume of aqueous 1 M sodium dithionite was added, and the mixture vortexed until colorless. […] Concentrations of decylubiquinol was determined spectrophotometrically on a Cary 300 Bio UV/visible spectrophotometer (Varian, UK) from absolute spectra, using ε288-320=8.1 mM-1·cm^−1. […]
The protocol for the preparation of parasite extract was adapted from Fisher et al. Free parasites were prepared from infected erythrocytes pooled from five T75 flasks, by adding 5 volumes of 0.15% (w/v) saponin in phosphate-buffered saline (137 mM NaCl, 2.7 mM KCl, 1.76 mM K2HPO4, 8.0 mM Na2HPO4, 5.5 mM D-glucose, pH 7.4) for 5 min, followed by three washes by centrifugation in RPMI containing HEPES (25 mM), and a final resuspension in potassium phosphate buffer (50 mM K2HPO4, 50 mM KH2PO4, 2 mM EDTA, pH7.4) containing a protease inhibitor cocktail (Complete Mini; Roche). […] The protein concentration of the parasite extract was determined by Bradford protein assay (Bio-Rad). […]

Structure (SMILES): Cc1[nH]c2c(c(=O)c1-c1ccc(Oc3ccc(Cl)cc3)cc1)CCCC2 [JAG050]
solubility [1]: 16 µM (≈ 5.85 µg/mL)
PBS Sol pH7.4 [1]: 16.41 μM
Toxicity to human cells in the in vitro model (HFF) [2]: not toxic
Concentration depolarizing the T. gondii mitochondrial membrane potential ([3]; permeabilized tachyzoites, safranin O): ≥ 200 nM

Structure (SMILES): Cc1[nH]c2c(c(=O)c1-c1ccc(Oc3cccc(C(=O)O)c3)cc1)CCCC2 [JAG047]
Toxicity* (highest concentration tested that does not show toxicity to HFF) [2]: ND/5 μM
Effect on T. gondii mitochondrial membrane potential [3]: almost no effect

Structure (SMILES): COc1cc(C)c2c(Oc3cccc(C(F)(F)F)c3)c(OC)cc(NC(C)CCCN)c2n1 (stereo not shown) [Tafenoquine]
Activity in tissue culture [4]: not active

Structure (SMILES): Cc1[nH]c2c(c(=O)c1-c1ccc(Oc3ccc(C(=O)O)cc3)cc1)CCCC2 [JAG046]
Toxicity* (highest concentration tested that does not show toxicity to HFF) [2]: ND/5 μM
Effect on T. gondii mitochondrial membrane potential [3]: almost no effect

solubility ([1]; phosphate buffered saline, pH 7.4, aqueous buffer, kinetic from dmso stock): 2 µM (≈ 0.663 µg/mL)
PBS Sol pH7.4 [1]: 1.97 μM
T1/2 (M) [5]: 20.97
Papp [6]: > 10 ×10⁻⁶ cm/s
efflux ratio [6]: < 1.5
Structure (SMILES): Cc1[nH]c2c(c(=O)c1-c1ccc(Oc3ccccc3)cc1)CCCC2 [MJM170]

PBS Sol pH7.4 [1]: 4.05 μM
inhibition at 1 µM [7]: 81.3 ± 6%
Structure (SMILES): O=c1c2c([nH]c(CO)c1-c1ccc(Oc3ccc(OC(F)(F)F)cc3)cc1)CCCC2 [JAG099]
